{"source": "patent US7645882B2", "about": "“Inhibitor of protein modification products formation” (priority 2003, dated 2010)", "key": {"SHR/NDmcr-cp rat": {"system": "SHR/NDmcr-cp rat", "assay": "Renal protecting effect in SHR/NDmcr-cp rat", "type": "in vivo", "settings": "33 weeks aged, 20 weeks administration; TM-2002 50 mg/kg in diet, olmesartane 3 mg/kg oral", "source_text": "Renal protecting effect was observed using SHR/NDmcr-cp (Disease Model Cooperative Research Association) rat, which had been known their high blood pressure, hyperglycemia, hyperlipemia, obesity and hyperinsulinemia and renal function disorder while aging.\nSHR/NDmcr-cp rat and Wistar Kyoto rat (Disease Model Cooperative Research Association) of 9 weeks aged were conformed for 3 weeks and measured their body weight and blood collection before administration. One group contain five rats (body weight 440 g±32 g). After division, excipient (negative control), positive control compound and test compound were administered 20 weeks. Carboxymethylcellulose (carboxymethyl cellulose Na/ Wako) solution as excipient and olmesartane, which is one of the angiotensin II receptor antagonist and has renal protective effect, as positive control compound were used to examine the effect of TM-2002 (test compound). The dosage of olmesartane was 3 mg per 1 kg of body weight and that of TM-2002 was 50 mg per 1 kg of body weight. Olmesartane was prepared by suspending or solving the designed amount in 1.0 ml of 0.5% carboxymethylcellulose solution or purified water, and TM-2002 was prepared by mixing the designed amount in 30 g of diet (for one day). Since the increase of body weight of test animals was remarkable, the amount of positive control compound and test compound was modified depending on the result of body weight measuring (every week). […] While administration period, body weight was measured every week, and blood collection, urine collection and blood pressure measuring were done every 2 weeks before 4 weeks aged and every 4 weeks after 5 weeks aged. Blood collection was carried out after warming to 38° C. by warming plate from caudal vein for 800 μl (heparin treatment: the amount of heparin was determined by ratio 15 μl to 1 ml of blood). […] The volume of daily urine was measured when urine was collected. The blood pressure was determined with by the tail-cuff method blood pressure measure (Softron). […]"}, "[1]": {"system": "ischemia-reperfusion renal failure model rat", "assay": "Renal protective effect on ischemia-reperfusion renal failure model rat", "type": "in vivo", "settings": "50 mg/kg twice daily by sonde, 2 days", "protocol": "This condition model is typical acute renal failure model. To prepare the model, operated on wistar rats (male, body weight 150 g, 6 weeks aged) to remove right kidney, and on the following day, renal artery of remaining left kidney was apply a ligature with clip under general anesthesia. […] After preparing the ischemia-reperfusion model, test compound (TM-2002, 50 mg/kg body weight, twice a daily) was suspended in 0.5% carboxymethylcellulose. The suspension was coercively administered 2 days continuously using sonde, on third day kidney was obtained, and analysed pathologically (renal tubular stromal disorder score). In particular, the kidney was stained by PAS according to conventional method and the renal tubular stromal disorder was estimated for the presence or absence of renal tubular necrosis, renal tubular hypertrophy, renal tubular atrophia, renal tubular basal lamina thickening and cast in the sustained image of kidney. As well as biochemical analysis of blood was carried out (contract clinical analysis organization: SRL)."}, "SHR/NDmcr-cp rats": {"system": "SHR/NDmcr-cp rats", "assay": "In vivo endoplasmic reticula stress alleviation, anti-ORP150 immunostaining of kidney", "set-up": "species or system rat", "settings": "100 mg/1 kg body weight by diet, 33 weeks aged", "protocol": "Endoplasmic reticula stress alleviation effect by TM-2002 was examined using SHR/NDmcr-cp (Disease Model Cooperative Research Association) rats, which have been known their high blood pressure, hyperglycemia, hyperlipemia, obesity and hyperinsulinemia and renal function disorder while aging, and immunostained utilizing anti-ORP150 antibody. The stained section samples which were used for staining were prepared as following manner; SHR/NDmcr-cp rats which were administered the desired amount of test compound TM-2002 (dose: 100 mg/1 kg body weight) by diet (30 g daily), the rats which were administered no drug and SHR (hypertension) rats and Wistar Kyoto rats (control); kidney tissues of each rat were obtained after the end of drug administration period (33 weeks aged); all of tissues were fixed by Carnoy and embedded in paraffin. The staining of each samples was carried out by Catalyzed Sifnal Amplification(CSA) System (DAKO) according to their protocol. […] The samples were observed by microscopic visualization with optical microscope (Olympus) and analyzed the result. […]"}}}
{"compound": "Cc1ncc2c(c1O)C(c1c(C)nn(-c3ccccc3)c1O)OC2", "note": "(stereo not shown) [compound 68, 1-(5-hydroxy-3-methyl-1-phenyl-1H-pyrazol-4-yl)-6-methyl-1,3-dihydro-furo[3,4-c]pyridin-7-ol]", "values": [{"measurement": "blood pressure", "setting": "SHR/NDmcr-cp rat", "value": "without blood pressure lowering"}, {"measurement": "renal function / renal protective effect", "setting": "SHR/NDmcr-cp rat", "value": "excellent renal protective effect"}, {"measurement": "urinary protein", "setting": "SHR/NDmcr-cp rat", "value": "urinary protein is suppressed remarkably"}, {"measurement": "BUN value", "setting": "[1]; kidney on third day", "value": "improved"}, {"measurement": "urinary protein", "setting": "[1]; kidney on third day", "value": "improved"}, {"measurement": "number of glomerular cells", "setting": "[1]; p<0.0001", "value": "significantly suppressed"}, {"measurement": "ORP150 positive staining site / ER stress in kidney", "setting": "SHR/NDmcr-cp rats", "value": "decrease of positive staining site and suppressing ER stress"}]}
